Measured values published in patent US9682953B2, “Amide compounds, compositions and applications thereof” (Advinus Therapeutics Limited, priority 2011, dated 2017).
Like-named read-outs stand apart in the source and are kept apart here.

Columns and labels:
[1] = target: human Fatty Acid Amide Hydrolase (FAAH) (Homo sapiens (Human), UniProt O00519); assay: biochemical; conditions: read-out: hFAAH IC50
[2] = target: rat Fatty Acid Amide Hydrolase (FAAH) (Rattus norvegicus (Rat), UniProt P97612); assay: FAAH in vitro fluorescence assay (AAMCA hydrolysis), rat enzyme; type: biochemical; conditions: rat FAAH; for IC50: read-out: rFAAH IC50; for inhibition at 0.1 µM: read-out: rFAAH % inhibition at 100 nM, 100 nM (tier I); for inhibition at 10 µM: read-out: rFAAH % inhibition at 10 uM
Experimental: Material and Reagents: All reagents were purchased from Sigma-Aldrich unless specified. […] Chaperone protein groEL-groES in pGRO7 plasmid (Takara Bio Inc, Japan) was co-expressed with Fatty Acid Amide Hydrolase (FAAH) to improve solubility of the protein expressed in E coli. […] Briefly, the bacterial cultures in Luria Broth (2 L) were induced with arabinose (2 mM) and Isopropyl (β-D-1-thiogalactopyranoside, IPTG (1 mM), for 20 h at room temperature. The cultures were centrifuged at 1200×g for 10 min and the cell pellet was resuspended in 100 mL buffer containing of 20 mM NaPi (pH 7.4), 100 mM NaCl, Benzonase (500u), Aprotinin (1 μg/mL) and Leupeptin (1 μg/mL). Cells were lyzed by sonication (Amp 20%, Pulse 15 s×15, on ice) and the cell debris removed by centrifugation at 5000×g for 20 min. The supernatant was enriched via ultracentrifugation at 100,000×g for 1 h and the cell pellet was resuspended in 16 mL buffer containing 20 mM NaPi (pH 7.8), 500 mM NaCl, 1% Triton X-100. The resuspended cell extract was subjected to ultra-centrifugation at 100,000×g for 1 h and the enriched supernatant was used in the in vitro assay. All protein extraction steps were carried out on ice or at 4° C.
The assay was carried out in 200 μL volume in a 96-well black polystyrene plate (Greiner Bio-one, Germany). Each reaction consisted of human Fatty Acid Amide Hydrolase (FAAH) protein and 10 μM AAMCA in assay buffer containing 50 mM HEPES, 1 mM EDTA and 0.1% BSA, pH 7.4. The reaction was incubated with 2 μL of varying concentrations of inhibitor in DMSO (final concentration of DMSO 1%) with shaking for 1 min and monitored for increase in fluorescence in kinetic mode for 50 min. […] Rate of reaction as a function of the concentration of the inhibitor was used to determine the IC50 of the inhibitors. Data was analyzed using GraphPad Prism 5 (GraphPad Software Inc., San Diego, Calif.). The activity of the compounds for rat Fatty Acid Amide Hydrolase (FAAH) was evaluated as described above with rat Fatty Acid Amide Hydrolase (FAAH) protein and 10 μM AAMCA substrate.

Sequence of human Fatty Acid Amide Hydrolase (FAAH) (O00519 30-579): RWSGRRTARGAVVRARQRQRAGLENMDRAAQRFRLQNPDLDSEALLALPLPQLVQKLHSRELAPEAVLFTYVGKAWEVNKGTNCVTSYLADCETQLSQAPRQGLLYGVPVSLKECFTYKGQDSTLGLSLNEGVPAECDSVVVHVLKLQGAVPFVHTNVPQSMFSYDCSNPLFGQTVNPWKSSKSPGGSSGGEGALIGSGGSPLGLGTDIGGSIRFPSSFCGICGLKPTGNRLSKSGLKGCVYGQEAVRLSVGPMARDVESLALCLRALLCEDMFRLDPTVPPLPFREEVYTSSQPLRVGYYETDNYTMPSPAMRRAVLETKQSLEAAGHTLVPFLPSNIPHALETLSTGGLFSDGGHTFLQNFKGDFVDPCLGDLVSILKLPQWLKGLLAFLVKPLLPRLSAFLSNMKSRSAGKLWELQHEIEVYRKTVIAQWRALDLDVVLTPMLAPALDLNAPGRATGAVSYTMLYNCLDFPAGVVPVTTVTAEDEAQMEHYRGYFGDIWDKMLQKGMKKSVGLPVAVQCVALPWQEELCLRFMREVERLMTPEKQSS
Sequence of rat Fatty Acid Amide Hydrolase (FAAH) (P97612 30-579): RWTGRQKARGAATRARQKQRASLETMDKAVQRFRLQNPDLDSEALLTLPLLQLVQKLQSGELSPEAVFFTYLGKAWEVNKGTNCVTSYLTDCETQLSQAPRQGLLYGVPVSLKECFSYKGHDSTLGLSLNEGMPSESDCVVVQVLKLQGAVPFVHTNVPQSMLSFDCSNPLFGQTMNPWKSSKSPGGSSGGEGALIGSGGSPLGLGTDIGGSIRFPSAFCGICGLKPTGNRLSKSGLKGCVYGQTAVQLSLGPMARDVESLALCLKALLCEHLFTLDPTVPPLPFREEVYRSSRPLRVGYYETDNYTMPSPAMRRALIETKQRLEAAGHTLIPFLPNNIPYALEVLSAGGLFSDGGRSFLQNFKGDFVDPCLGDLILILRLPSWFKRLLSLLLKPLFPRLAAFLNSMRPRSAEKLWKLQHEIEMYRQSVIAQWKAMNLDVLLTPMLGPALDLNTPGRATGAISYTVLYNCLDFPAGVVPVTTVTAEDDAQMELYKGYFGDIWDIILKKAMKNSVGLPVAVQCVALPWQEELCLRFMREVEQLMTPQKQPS

Compound | IC50 ([1]; human FAAH) [nM] | IC50 [2] [nM] | other results
O=C(NC1CCC(=Cc2cccc(Oc3ccc(C(F)(F)F)cn3)c2)CC1)c1ccc(-n2cc(Cl)cn2)nc1 (centres unmarked) [Example 2.B-8, 6-(4-Chloropyrazol-1-yl)-N-[4-[[3-[[5-(trifluoromethyl)-2-pyridyl]oxy]phenyl]methylene]cyclohexyl]pyridine-3-carboxamide] | 5 | 21 | 
O=C(NC1CCC(=Cc2cccc(Oc3ccc(C(F)(F)F)cn3)c2)CC1)c1cncc(-n2cccn2)c1 (centres unmarked) [Example 2.B-7, 5-Pyrazol-1-yl-N-[4-[[3-[[5-(trifluoromethyl)-2-pyridyl]oxy]phenyl]methylene]cyclohexyl]pyridine-3-carboxamide] | 6 | 85 | 
O=C(NC1CCC(=Cc2cccc(Oc3ccc(C(F)(F)F)cn3)c2)CC1)c1cncc(Cl)c1 (centres unmarked) [Example 2.A-32, 5-Chloro-N-[4-[[3-[[5-(trifluoromethyl)-2-pyridyl]oxy]phenyl]methylene]cyclohexyl]pyridine-3-carboxamide] | 6 |  | inhibition at 0.1 µM [2]: 40%
O=C(NC1CCC(=Cc2cccc(Oc3ccc(C(F)(F)F)cn3)c2)CC1)c1ccc(-n2cnnc2)nc1 (centres unmarked) [Example 2.B-13, 6-(1,2,4-Triazol-4-yl)-N-[4-[[3-[[5-(trifluoromethyl)-2-pyridyl]oxy]phenyl]methylene]cyclohexyl]pyridine-3-carboxamide] |  | 14 | IC50 [1]: 2 nM
O=C(NC1CCC(=Cc2cccc(Oc3ccc(C(F)(F)F)cn3)c2)CC1)c1cccnn1 (single isomer, unassigned; (+)) [Example 20.A-15, (+)-N-[4-[[3-[[5-(trifluoromethyl)-2-pyridyl]oxy]phenyl]methylene]cyclohexyl]pyridazine-3-carboxamide] |  | 408 | IC50 [1]: 431 nM
O=C(NC1CCC(=Cc2cccc(Oc3ccc(C(F)(F)F)cn3)c2)CC1)c1cnc2[nH]ccc2c1 (single isomer, unassigned; (+)) [Example 20.A-13, (+)-N-[4-[[3-[[5-(trifluoromethyl)-2-pyridyl]oxy]phenyl]methylene]cyclohexyl]-1H-pyrrolo[2,3-b]pyridine-5-carboxamide] |  | 407 | IC50 [1]: 55 nM
O=C(NC1CCC(=Cc2cccc(Oc3ccc(C(F)(F)F)cn3)c2)CC1)c1ccc(C2CC2)nc1 (centres unmarked) [Example 2.A-42, 6-Cyclopropyl-N-[4-[[3-[[5-(trifluoromethyl)-2-pyridyl]oxy]phenyl]methylene]cyclohexyl]pyridine-3-carboxamide] | 13 | 14 | 
Cc1nc(Oc2cccc(C=C3CCC(NC(=O)c4ccc(N)nc4)CC3)c2)ccc1C(F)(F)F (centres unmarked) [Example 2.E-17, 6-Amino-N-[4-[[3-[[6-methyl-5-(trifluoromethyl)-2-pyridyl]oxy]phenyl]methylene]cyclohexyl]pyridine-3-carboxamide] |  | 27 | IC50 [1]: 3 nM
O=C(NC1CCC(=Cc2cccc(Oc3ccc(C(F)(F)F)cn3)c2)CC1)c1cn[nH]c1 (single isomer, unassigned; (+)) [Example 20.A-11, (+)-N-[4-[[3-[[5-(trifluoromethyl)-2-pyridyl]oxy]phenyl]methylene]cyclohexyl]-1H-pyrazole-4-carboxamide] | 78 |  | inhibition at 10 µM [2]: 86%
O=C(NC1CCC(=Cc2cccc(Oc3ccc(C(F)(F)F)cn3)c2)CC1)c1cn[nH]c1 (single isomer, unassigned; (-)) [Example 20.A-12, (−)-N-[4-[[3-[[5-(trifluoromethyl)-2-pyridyl]oxy]phenyl]methylene]cyclohexyl]-1H-pyrazole-4-carboxamide] | 1.7 | 35.5 | 
Cc1nc(Oc2cccc(C=C3CCC(NC(=O)c4cnc(N)nc4)CC3)c2)ccc1Cl (centres unmarked) [Example 2.E-27, 2-Amino-N-[4-[[3-[(5-chloro-6-methyl-2-pyridyl)oxy]phenyl]methylene]cyclohexyl]pyrimidine-5-carboxamide] | 1 | 17 | 
O=C(NC1CCC(=Cc2cccc(Oc3ccc(C(F)(F)F)cn3)c2)CC1)c1cncc(O)c1 (centres unmarked) [Example 2.C-4, 5-Hydroxy-N-[4-[[3-[[5-(trifluoromethyl)-2-pyridyl]oxy]phenyl]methylene]cyclohexyl]pyridine-3-carboxamide] | 4 | 21 | 
O=C(NC1CCC(=Cc2cccc(Oc3ccc(C(F)(F)F)cn3)c2)CC1)c1cccnn1 (centres unmarked) [Example 2.A-11, N-[4-[[3-[[5-(Trifluoromethyl)-2-pyridyl]oxy]phenyl]methylene]cyclohexyl]pyridazine-3-carboxamide] |  | 194 | IC50 [1]: 11 nM
O=C(NC1CCC(=Cc2cccc(Oc3ccc(C(F)(F)F)cn3)c2)CC1)c1ncccn1 (centres unmarked) [Example 2.A-16, N-[4-[[3-[[5-(Trifluoromethyl)-2-pyridyl]oxy]phenyl]methylene]cyclohexyl]pyrimidine-2-carboxamide] | 15 |  | inhibition at 0.1 µM [2]: 38%
Cc1nc(Oc2cccc(C=C3CCC(NC(=O)c4c[nH]nc4C(F)(F)F)CC3)c2)ccc1C(F)(F)F (centres unmarked) [Example 2.E-18, N-[4-[[3-[[6-Methyl-5-(trifluoromethyl)-2-pyridyl]oxy]phenyl]methylene]cyclohexyl]-3-(trifluoromethyl)-1H-pyrazole-4-carboxamide] | 13 |  | inhibition at 0.1 µM [2]: 55%
O=C(NC1CCC(=Cc2cccc(Oc3ccc(C(F)(F)F)cn3)c2)CC1)c1c[nH]nc1C(F)(F)F (single isomer, unassigned; (+)) [Example 20.A-7, (+)-3-(Trifluoromethyl)-N-[4-[[3-[[5-(trifluoromethyl)-2-pyridyl]oxy]phenyl]methylene]cyclohexyl]-1H-pyrazole-4-carboxamide] |  |  | IC50 [1]: 67 nM; inhibition at 10 µM [2]: 85%
O=C(NC1CCC(=Cc2cccc(Oc3ccc(C(F)(F)F)cn3)c2)CC1)c1ccc(NC2CC2)nc1 (centres unmarked) [Example 5.A-10, 6-(Cyclopropylamino)-N-[4-[[3-[[5-(trifluoromethyl)-2-pyridyl]oxy]phenyl]methylene]cyclohexyl]pyridine-3-carboxamide] | 25 | 74 | 
O=C(NC1CCC(=Cc2cccc(Oc3ccc(C(F)(F)F)cn3)c2)CC1)c1c[nH]c2ccccc12 [Example 2.D-6, N-[4-[[3-[[5-(Trifluoromethyl)-2-pyridyl]oxy]phenyl]methylene]cyclohexyl]-1H-indole-3-carboxamide] |  | 87 | IC50 [1]: 10 nM
O=C(NC1CCC(=Cc2cccc(Oc3ccc(C(F)(F)F)cn3)c2)CC1)c1ccccc1 (centres unmarked) [Example 2.A-34, N-[4-[[3-[[5-(Trifluoromethyl)-2-pyridyl]oxy]phenyl]methylene]cyclohexyl]benzamide] | 18 |  | inhibition at 1 µM ([2]; read-out: rFAAH % inhibition at 1 μM, 1 μM): 50%
Cc1n[nH]c(C)c1-c1ccc(C(=O)NC2CCC(=Cc3cccc(Oc4ccc(C(F)(F)F)cn4)c3)CC2)cn1 (centres unmarked) [Example 2.B-11, 6-(3,5-Dimethyl-1H-pyrazol-4-yl)-N-[4-[[3-[[5-(trifluoromethyl)-2-pyridyl]oxy]phenyl]methylene]cyclohexyl]pyridine-3-carboxamide] | 17 | 52 | 
O=C(NC1CCC(=Cc2cccc(Oc3ccc(C(F)(F)F)cn3)c2)CC1)c1nc2cccnc2s1 [Example 2.D-3, N-[4-[[3-[[5-(Trifluoromethyl)-2-pyridyl]oxy]phenyl]methylene]cyclohexyl]thiazolo[5,4-b]pyridine-2-carboxamide] |  |  | inhibition at 0.1 µM [2]: 38%
O=C(NC1CCC(=Cc2cccc(Oc3ccc(C(F)(F)F)cn3)c2)CC1)c1cccnc1 (single isomer, unassigned; (+)) [Example 20.A-1, (+)-N-[4-[[3-[[5-(Trifluoromethyl)-2-pyridyl]oxy]phenyl]methylene]cyclohexyl]pyridine-3-carboxamide] |  |  | inhibition at 10 µM [2]: 60%
O=C(NC1CCC(=Cc2cccc(Oc3ccc(C(F)(F)F)cn3)c2)CC1)c1ccc(-n2ccc(C(=O)O)n2)nc1 (centres unmarked) [Example 8.A-5, 1-[5-[[4-[[3-[[5-(Trifluoromethyl)-2-pyridyl]oxy]phenyl]methylene]cyclohexyl]carbamoyl]-2-pyridyl]pyrazole-3-carboxylic acid] |  |  | inhibition at 0.1 µM [2]: 55%
Cc1nc(Oc2cccc(C=C3CCC(NC(=O)c4cnc(N)nc4)CC3)c2)ccc1Cl (single isomer, unassigned; (-)) [Example 20.A-22, (−)-2-Amino-N-[4-[[3-[(5-chloro-6-methyl-2-pyridyl)oxy]phenyl]methylene]cyclohexyl]pyrimidine-5-carboxamide] | 1.1 |  | 
